Patent US10508085B2, “Compounds and methods for IDO and TDO modulation, and indications therefor” (Plexxikon Inc., priority 2016, dated 2019)
Where two headings read alike, the source gives them in different places.

Experiments:
[1] = target: T1, Human Tryptophan 2,3-dioxygenase (TDO) (Homo sapiens, UniProt P48775); assay: Human TDO enzymatic assay (kynurenine level); type: biochemical
T1 construct: His tag (N); made in house; host or cells: E. coli
Procedure, shortened: (§1)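 Kynurenine formed is measured after TCA quench and 50 °C hydrolysis, with % inhibition against full-reaction and no-enzyme controls (5% DMSO). IDO: 6 nM enzyme, 10 μM L-Trp, 5 μM methylene blue, 20 min; TDO: 1 nM, 350 μM L-Trp, 0.4 μM methylene blue, 70 min; both pH 6.5, room temp, E. coli-expressed His-tagged.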

[2] = target: T2, human IDO (IDO1-expressing HEK293 cells) (Homo sapiens, UniProt P14902); assay: Cell based kynurenine assay, IDO1-expressing HEK293 cell clones
T2 construct: expressed in transfected cells
T2 sequence (P14902 whole entry): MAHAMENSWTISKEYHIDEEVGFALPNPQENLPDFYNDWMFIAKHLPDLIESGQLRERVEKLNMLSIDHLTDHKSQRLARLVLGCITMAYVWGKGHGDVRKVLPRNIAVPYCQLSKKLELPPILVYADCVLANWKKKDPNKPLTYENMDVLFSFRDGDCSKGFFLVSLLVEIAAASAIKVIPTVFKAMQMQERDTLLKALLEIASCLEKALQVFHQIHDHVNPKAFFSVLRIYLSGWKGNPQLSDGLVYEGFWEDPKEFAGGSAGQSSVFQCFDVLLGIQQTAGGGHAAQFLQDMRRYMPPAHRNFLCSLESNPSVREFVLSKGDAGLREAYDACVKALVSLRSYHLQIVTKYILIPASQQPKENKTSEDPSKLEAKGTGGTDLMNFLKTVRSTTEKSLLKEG
Procedure, shortened: (§2)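 IC50 values come from nonlinear regression of kynurenine reduction in supernatants of human IDO1- or TDO-expressing HEK293 cells incubated 24 h with serially diluted compounds, normalised to cell and media-only controls containing 0.2% DMSO.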

[3] = target: T3, Human Indoleamine 2,3-dioxygenase (IDO) (Homo sapiens, UniProt P14902); assay: Human IDO enzymatic assay (kynurenine level); type: biochemical
T3 construct: His tag (N); made in house; host or cells: E. coli
T3 sequence (P14902 whole entry): as above
Procedure, shortened: as §1

[4] = target: T4, human TDO (TDO-expressing HEK293 cells) (Homo sapiens, UniProt P48775); assay: Cell based kynurenine assay, TDO-expressing HEK293 cell clones
T4 construct: expressed in transfected cells
T4 sequence (P48775 whole entry): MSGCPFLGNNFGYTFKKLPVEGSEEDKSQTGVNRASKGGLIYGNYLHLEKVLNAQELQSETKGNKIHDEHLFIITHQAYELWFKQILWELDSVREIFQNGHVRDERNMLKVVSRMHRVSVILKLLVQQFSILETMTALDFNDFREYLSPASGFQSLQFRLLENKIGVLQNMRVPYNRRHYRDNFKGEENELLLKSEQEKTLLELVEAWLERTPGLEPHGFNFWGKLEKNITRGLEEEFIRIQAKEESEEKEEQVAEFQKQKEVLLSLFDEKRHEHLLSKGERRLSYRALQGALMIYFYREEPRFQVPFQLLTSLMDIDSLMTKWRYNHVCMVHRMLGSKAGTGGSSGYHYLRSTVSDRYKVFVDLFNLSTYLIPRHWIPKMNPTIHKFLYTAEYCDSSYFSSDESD
Procedure, shortened: as §2

[5] = 1 nM TDO, 350 μM L-Trp, geometric mean, read-out: TDO GMean: IC50 (μM) (Biochemical Assay)
[6] = IDO1-expressing HEK293 cells, 24 hours incubation, geometric mean, read-out: HEK293 IDO1 Kynurenine GMean IC50 (μM) (Cellular Assay)
[7] = 6 nM IDO, 10 μM L-Trp, geometric mean, read-out: IDO1 GMean: IC50 (μM) (Biochemical Assay)
[8] = TDO-expressing HEK293 cells, 24 hours incubation, geometric mean, read-out: HEK293 TDO Kynurenine GMean IC50 (μM) (Cellular Assay)
[9] = IDO1-expressing HEK293 cells, 24 hours, geometric mean, read-out: HEK293 IDO1 Kynurenine GMean IC50 (μM) (Cellular Assay)
[10] = TDO-expressing HEK293 cells, 24 hours, geometric mean, read-out: HEK293 TDO Kynurenine GMean IC50 (μM) (Cellular Assay)

T1 sequence (P48775 whole entry): as above

Row | SMILES | IC50 [1, 5] [µM] | IC50 [2, 6] [µM] | IC50 [3, 7] [µM] | IC50 [4, 8] [µM] | IC50 [2, 9] [µM] | IC50 [4, 10] [µM] | IC50 ([1]; biochemical assay, comparative examples, 4,6 versus 5,7 indazole, read-out: TDO) [µM] | IC50 ([2]; cellular assay, HEK293, 24 hours, comparative examples, read-out: hIDO1) [µM] | IC50 ([3]; biochemical assay, comparative examples, 4,6 versus 5,7 indazole, read-out: IDO1) [µM] | IC50 ([4]; cellular assay, HEK293, 24 hours, comparative examples, read-out: hTDO) [µM]
1 | OC(c1cc(Cl)cc2cn[nH]c12)C1CCC(F)(F)CC1 (stereo not shown) [Compound P-0022, (5-chloro-1H-indazol-7-yl)(4,4-difluorocyclohexyl)methanol] | 0.0001 to 10 | 0.0001 to 10 | 0.0001 to 10 | 0.0001 to 10 | – | – | – | – | – | –
2 | CC(C)(C(O)c1cc(Cl)cc2cn[nH]c12)[C@H]1C[C@H]2CC[C@@H](C1)N2C(=O)NC1CC1 (stereo partly drawn) [Compound P-0439, (1R,3r,5S)-3-(1-(5-chloro-1H-indazol-7-yl)-1-hydroxy-2-methylpropan-2-yl)-N-cyclopropyl-8-azabicyclo [3.2.1]octane-8-carboxamide] | 0.0001 to 10 | – | 0.0001 to 10 | – | 0.0001 to 10 | 0.0001 to 10 | – | – | – | –
3 | CC1(C(O)c2cc(Cl)c(F)c3cn[nH]c23)CCCCC1 (stereo not shown) [Compound P-0055, (5-chloro-4-fluoro-1H-indazol-7-yl)(1-methylcyclohexyl)methanol] | 0.0001 to 10 | 0.0001 to 10 | 0.0001 to 10 | 0.0001 to 10 | – | – | – | – | – | –
4 | C[C@H](NC(=O)N1CCC(C(C)(C)C(O)c2cc(Cl)cc3cn[nH]c23)CC1)c1ccccn1 (stereo partly drawn) [Compound P-0478, 4-(1-(5-chloro-1H-indazol-7-yl)-1-hydroxy-2-methylpropan-2-yl)-N-((S)-1-(pyridin-2-yl)ethyl)piperidine-1-carboxamide] | 0.0001 to 10 | – | 0.0001 to 10 | – | 0.0001 to 10 | 0.0001 to 10 | – | – | – | –
5 | COc1cc(NC(=O)N2CCC(C(C)(C)C(O)c3cc(Cl)cc4cn[nH]c34)CC2)cc(OC)c1 (stereo not shown) [Compound P-0396, 4-(1-(5-chloro-1H-indazol-7-yl)-1-hydroxy-2-methylpropan-2-yl)-N-(3,5-dimethoxyphenyl) piperidine-1-carboxamide] | 0.0001 to 10 | 0.0001 to 10 | 0.0001 to 10 | 0.0001 to 10 | – | – | – | – | – | –
6 | CC(C)(CN1CCCC1)C(O)c1cc(Cl)cc2cn[nH]c12 (stereo not drawn) [Compound P-0202, 1-(5-chloro-1H-indazol-7-yl)-2,2-dimethyl-3-(pyrrolidin-1-yl)propan-l-ol] | 0.0001 to 10 | > 10 | 10 to 100 | > 10 | – | – | – | – | – | –
7 | CC(C)(C1CCN(C(=O)Nc2ccc(C#N)nc2)CC1)C(O)c1cc(Cl)cc2cn[nH]c12 (stereo not shown) [Compound P-0570, 4-(1-(5-chloro-1H-indazol-7-yl)-1-hydroxy-2-methylpropan-2-yl)-N-(6-cyanopyridin-3-yl)piperidine-1-carboxamide] | 0.0001 to 10 | – | 0.0001 to 10 | – | 0.0001 to 10 | 0.0001 to 10 | – | – | – | –
8 | NC(=O)N1CCC2(CC1)CC(O)(c1cc(Cl)cc3cn[nH]c13)C2 [Compound P-0346, 2-(5-chloro-1H-indazol-7-yl)-2-hydroxy-7-azaspiro[3.5] nonane-7-carboxamide] | 0.0001 to 10 | 0.0001 to 10 | 0.0001 to 10 | 0.0001 to 10 | – | – | – | – | – | –
9 | O=C(Nc1ccc(Cl)cc1)N1CCC(C(F)(F)C(O)c2cc(Cl)cc3cn[nH]c23)CC1 (stereo not shown) [Compound P-0484, 4-(2-(5-chloro-1H-indazol-7-yl)-1,1-difluoro-2-hydroxyethyl)-N-(4-chlorophenyl) piperidine-1-carboxamide] | 0.0001 to 10 | – | 0.0001 to 10 | – | 0.0001 to 10 | 0.0001 to 10 | – | – | – | –
10 | CC(C)(C1CCN(C(=O)NCCNS(C)(=O)=O)CC1)C(O)c1cc(Cl)cc2cn[nH]c12 (stereo not shown) [Compound P-0493, 4-(1-(5-chloro-1H-indazol-7-yl)-1-hydroxy-2-methylpropan-2-yl)-N-(2-(methylsulfonamido)ethyl)piperidine-1-carboxamide] | 0.0001 to 10 | – | 0.0001 to 10 | – | 0.0001 to 10 | 0.0001 to 10 | – | – | – | –
11 | CC(C)(C1CCN(C(=O)NC2CCC2)CC1)C(O)c1cc(Cl)cc2cn[nH]c12 (stereo not shown) [Compound P-0387, 4-(1-(5-chloro-1H-indazol-7-yl)-1-hydroxy-2-methylpropan-2-yl)-N-cyclobutylpiperidine-1-carboxamide] | 0.0001 to 10 | 0.0001 to 10 | 0.0001 to 10 | 0.0001 to 10 | – | – | – | – | – | –
12 | CC(C)(C)OC(=O)N1CCC(C(O)c2cccc3cncn23)CC1 (stereo not shown) [Compound P-0076, tert-butyl 4-(hydroxy(imidazo[1,5-a]pyridin-5-yl)methyl)piperidine-1-carboxylate] | 0.0001 to 10 | > 10 | 10 to 100 | > 10 | – | – | – | – | – | –
13 | OC1(c2cc(Cl)cc3cn[nH]c23)CCC1 [Compound P-0206, 1-(5-chloro-1H-indazol-7-yl)cyclobutan-1-ol] | 10 to 100 | > 10 | 10 to 100 | 0.0001 to 10 | – | – | – | – | – | –
14 | CCC1(C(O)c2cc(Cl)cc3cn[nH]c23)CCC1 (stereo not shown) [Compound P-0223, (5-chloro-1H-indazol-7-yl)(1-ethylcyclobutyl)methanol] | 0.0001 to 10 | 0.0001 to 10 | 0.0001 to 10 | 0.0001 to 10 | – | – | – | – | – | –
15 | CC(C)(C1CCN(C(=O)c2cccnc2)CC1)C(O)c1cc(Cl)cc2cn[nH]c12 (stereo not shown) [Compound P-0362, (4-(1-(5-chloro-1H-indazol-7-yl)-1-hydroxy-2-methylpropan-2-yl)piperidin-1-yl)(pyridin-3-yl)methanone] | 0.0001 to 10 | 0.0001 to 10 | 0.0001 to 10 | 0.0001 to 10 | – | – | – | – | – | –
16 | CS(=O)(=O)NC12CCC(C(O)c3cc(Cl)cc4cn[nH]c34)(CC1)CC2 (stereo not shown) [Compound P-0415, N-(4-((5-chloro-1H-indazol-7-yl)(hydroxy)methyl)bicyclo[2.2.2]octan-1-yl) methanesulfonamide] | 0.0001 to 10 | – | 0.0001 to 10 | – | 0.0001 to 10 | > 10 | – | – | – | –
17 | CC(C)(C1CCN(C(=O)C2CCOCC2)CC1)[C@H](O)c1cc(Cl)cc2cn[nH]c12 [Compound P-0546, (S)-(4-(1-(5-chloro-1H-indazol-7-yl)-1-hydroxy-2-methylpropan-2-yl)piperidin-1-yl)(tetrahydro-2H-pyran-4-yl)methanone] | 0.0001 to 10 | – | 0.0001 to 10 | – | 0.0001 to 10 | 0.0001 to 10 | – | – | – | –
18 | COC(=O)N1CC2CCC(C1)C2CC(O)c1cc(Cl)cc2cn[nH]c12 (stereo not shown) [Compound P-0329, methyl 8-(2-(5-chloro-1H-indazol-7-yl)-2-hydroxyethyl)-3-azabicyclo [3.2.1]octane-3-carboxylate] | 0.0001 to 10 | 0.0001 to 10 | 0.0001 to 10 | 0.0001 to 10 | – | – | – | – | – | –
19 | CC(C)(C1CCS(=O)(=O)CC1)C(O)c1cc(Cl)cc2cn[nH]c12 (stereo not shown) [Compound P-0297, 4-(1-(5-chloro-1H-indazol-7-yl)-1-hydroxy-2-methylpropan-2-yl)tetrahydro-2H-thiopyran 1,1-dioxide] | 0.0001 to 10 | 0.0001 to 10 | 0.0001 to 10 | 0.0001 to 10 | – | – | – | – | – | –
20 | CC1(C(O)c2cc(Cl)cc3cn[nH]c23)CC2CC2C1 (stereo not shown) [Compound P-0228, (5-chloro-1H-indazol-7-yl)(3-methylbicyclo[3.1.0]hexan-3-yl)methanol] | 0.0001 to 10 | 0.0001 to 10 | 0.0001 to 10 | 0.0001 to 10 | – | – | – | – | – | –
21 | CC(C)(C1CCN(S(C)(=O)=O)CC1)C(O)c1cc(Cl)cc2cn[nH]c12 (stereo not shown) [drawing 814] | – | – | – | – | – | – | 0.15 | 0.08 | 0.03 | 0.42
22 | O=C(Nc1cccc(F)c1)N1CCC(C(F)(F)C(O)c2cc(Cl)cc3cn[nH]c23)CC1 (stereo not shown) [Compound P-0152, 4-(2-(5-chloro-1H-indazol-7-yl)-1,1-difluoro-2-hydroxyethyl)-N-(3-fluorophenyl)piperidine-1-carboxamide] | 0.0001 to 10 | 0.0001 to 10 | 0.0001 to 10 | 0.0001 to 10 | – | – | – | – | – | –
23 | CC(C)(C1CCN(C(=O)CC2CC2)CC1)C(O)c1cc(Cl)cc2cn[nH]c12 (stereo not shown) [Compound P-0410, 1-(4-(1-(5-chloro-1H-indazol-7-yl)-1-hydroxy-2-methylpropan-2-yl)piperidin-1-yl)-2-cyclopropylethan-1-one] | 0.0001 to 10 | – | 0.0001 to 10 | – | 0.0001 to 10 | 0.0001 to 10 | – | – | – | –
24 | CC1(C)CN(c2cc(Cl)cc3cn[nH]c23)CCN1S(C)(=O)=O [Compound P-0089, 5-chloro-7-(3,3-dimethyl-4-(methylsulfonyl)piperazin-1-yl)-1H-indazole] | 0.0001 to 10 | 0.0001 to 10 | 0.0001 to 10 | 0.0001 to 10 | – | – | – | – | – | –
25 | Cc1noc(C)c1NC(=O)N1CCC(C(C)(C)C(O)c2cc(Cl)cc3cn[nH]c23)CC1 (stereo not shown) [Compound P-0392, 4-(1-(5-chloro-1H-indazol-7-yl)-1-hydroxy-2-methylpropan-2-yl)-N-(3,5-dimethylisoxazol-4-yl)piperidine-1-carboxamide] | 0.0001 to 10 | 0.0001 to 10 | 0.0001 to 10 | 0.0001 to 10 | – | – | – | – | – | –
